According to patent US20260007684A1, “AMIDE DERIVATIVES FOR INHIBITING NLRP3 AND USES THEREOF” (Ventus Therapeutics U.S., Inc., priority 2023, published 2026):
Where two headings read alike, the source gives them in different places.

What was measured:
[1] = target: T1, human NLRP3 (Homo sapiens (Human), UniProt Q96P20); assay: Scintillation Proximity (SPA) NLRP3 Assay: displacement of 3H-MCC950; format: binding; details: for IC50: read-out: SPA IC50
[2] = target: T1, human NLRP3; assay: Human PBMC NLRP3 Assay (LPS priming, ATP stimulation, cytokine measurement); format: cell-based
[3] = target: mouse NLRP3 (Mus musculus (Mouse), UniProt Q8R4B8); assay: Mouse Whole Blood (mWB) NLRP3 Assay (LPS/ATP, IL-1b); format: cell-based
Description: Reagents: The following reagents were used: blood collection tubes (Heparin); U-bottom 96-well tissue culture (Falcon 353077); HBSS for LPS, ATP and compound dilutions (Gibco 24020-117); and LPS, E. coli serotype 026:B6 (Sigma L-2654).
Mouse IL-1b MSD assay: Blood was drawn from female CD1 mice (9 to 10 weeks) by cardiac puncture. Blood was plated (135 μL) per well in 96-well U-bottom plates. 7.5 μL of 20×LPS (20 μg/mL, final concentration of 1 μg/mL) was added and mixed by gentle pipetting, and the mixture was incubated in a TC incubator for five hours. 7.5 μL of 20× compound or vehicle per well was added and mixed by gentle pipetting. Compounds were diluted 1/50 in HBSS to prepare a 20× dilution curve in […].
The mixture was incubated for 30 minutes in a TC incubator with shaking (450 rpm). 5 μl of 31×ATP (155 mM, final concentration of 5 mM) was added and mixed by gentle pipetting. The mixture was incubated in a TC incubator for 30 minutes with shaking (450 rpm). The plate was centrifuged for 10 minutes at 800×g and −70 μL of plasma was removed. Plasma was frozen if required. Mouse IL-1b was analyzed with IL-1b MSD assay (K152TUK).
Compounds were added 30 minutes before priming the cells with LPS when TNFα was required to be quantified in the cytokine panel to confirm selectivity.

[4] = target: T1, human NLRP3; assay: Human Whole Blood (hWB) NLRP3 Assay (LPS/ATP, IL-1β); format: cell-based
[5] = human PBMC, LPS priming, ATP stimulation, read-out: PBMC IC50
[6] = mouse whole blood, LPS/ATP, IL-1b
[7] = human whole blood, LPS/ATP, IL-1β, read-out: hWB IC50

T1 sequence (Q96P20 whole entry): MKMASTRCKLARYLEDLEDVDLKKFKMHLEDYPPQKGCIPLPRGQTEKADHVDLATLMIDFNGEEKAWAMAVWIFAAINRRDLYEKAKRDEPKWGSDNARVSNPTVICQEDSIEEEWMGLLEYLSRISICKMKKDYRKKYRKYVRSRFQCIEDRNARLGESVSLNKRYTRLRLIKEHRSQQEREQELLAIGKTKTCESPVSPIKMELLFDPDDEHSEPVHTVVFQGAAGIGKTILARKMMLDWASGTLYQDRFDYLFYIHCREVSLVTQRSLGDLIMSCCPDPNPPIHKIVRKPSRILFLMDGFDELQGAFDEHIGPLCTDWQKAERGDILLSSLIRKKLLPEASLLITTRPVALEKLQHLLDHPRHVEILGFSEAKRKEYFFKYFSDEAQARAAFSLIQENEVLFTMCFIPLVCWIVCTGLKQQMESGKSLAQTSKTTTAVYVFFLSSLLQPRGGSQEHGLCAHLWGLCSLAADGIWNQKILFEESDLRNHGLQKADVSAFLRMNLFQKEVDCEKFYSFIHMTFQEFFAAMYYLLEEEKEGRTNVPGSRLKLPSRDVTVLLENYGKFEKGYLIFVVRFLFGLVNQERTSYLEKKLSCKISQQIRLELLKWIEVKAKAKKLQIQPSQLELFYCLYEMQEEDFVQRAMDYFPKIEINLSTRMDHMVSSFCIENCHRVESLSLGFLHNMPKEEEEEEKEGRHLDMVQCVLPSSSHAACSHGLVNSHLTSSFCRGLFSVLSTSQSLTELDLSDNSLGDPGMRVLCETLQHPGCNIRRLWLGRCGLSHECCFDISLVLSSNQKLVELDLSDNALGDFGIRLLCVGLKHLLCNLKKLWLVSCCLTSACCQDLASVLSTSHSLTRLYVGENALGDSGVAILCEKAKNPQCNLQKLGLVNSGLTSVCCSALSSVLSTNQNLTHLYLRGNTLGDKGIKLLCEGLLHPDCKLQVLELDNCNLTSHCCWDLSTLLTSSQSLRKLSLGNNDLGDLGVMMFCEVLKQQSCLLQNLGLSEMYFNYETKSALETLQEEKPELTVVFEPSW
Sequence of mouse NLRP3 (Q8R4B8 whole entry): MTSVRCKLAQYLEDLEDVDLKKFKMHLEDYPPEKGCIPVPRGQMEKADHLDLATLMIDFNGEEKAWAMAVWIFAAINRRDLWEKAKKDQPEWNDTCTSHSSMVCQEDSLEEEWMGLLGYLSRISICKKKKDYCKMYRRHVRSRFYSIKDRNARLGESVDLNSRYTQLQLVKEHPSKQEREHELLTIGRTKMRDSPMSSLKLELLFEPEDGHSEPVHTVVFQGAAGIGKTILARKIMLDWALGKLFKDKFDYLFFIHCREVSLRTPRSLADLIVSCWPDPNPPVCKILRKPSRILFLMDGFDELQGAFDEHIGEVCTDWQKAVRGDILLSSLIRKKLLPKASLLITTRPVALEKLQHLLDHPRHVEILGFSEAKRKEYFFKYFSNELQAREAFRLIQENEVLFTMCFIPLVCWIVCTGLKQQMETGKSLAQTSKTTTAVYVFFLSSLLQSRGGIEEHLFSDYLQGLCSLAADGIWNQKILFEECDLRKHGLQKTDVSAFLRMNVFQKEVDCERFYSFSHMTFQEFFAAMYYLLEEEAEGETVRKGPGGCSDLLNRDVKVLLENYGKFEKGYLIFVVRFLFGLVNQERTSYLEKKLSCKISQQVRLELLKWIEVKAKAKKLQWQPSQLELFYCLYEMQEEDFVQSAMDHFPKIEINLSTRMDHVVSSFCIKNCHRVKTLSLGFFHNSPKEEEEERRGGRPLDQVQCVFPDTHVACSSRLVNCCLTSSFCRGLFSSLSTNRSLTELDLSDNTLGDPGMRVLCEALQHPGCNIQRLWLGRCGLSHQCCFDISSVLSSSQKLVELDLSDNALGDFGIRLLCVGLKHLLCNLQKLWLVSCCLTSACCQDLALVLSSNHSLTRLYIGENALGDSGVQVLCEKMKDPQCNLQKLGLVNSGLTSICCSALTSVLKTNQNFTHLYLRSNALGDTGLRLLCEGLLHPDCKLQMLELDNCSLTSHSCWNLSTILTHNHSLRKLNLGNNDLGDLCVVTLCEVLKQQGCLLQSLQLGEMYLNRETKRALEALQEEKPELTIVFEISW

| Structure (SMILES) | IC50 ([1]; displacement of 3H-MCC950) | IC50 [1] | fold increase in binding activity (SPA IC50) ([1]; relative to Compound 46A) | IC50 [2, 5] | IC50 ([2]; read-out: PBMC IC50) | fold increase in potency as measured by PBMC IC50 ([2]; relative to Compound 46A) | IC50 [3] | IC50 [3, 6] | fold increase in potency as measured by mWB IC50 ([3]; relative to Compound 46A) | IC50 [4, 7] | IC50 ([4]; read-out: hWB IC50) | fold increase in potency as measured by hWB IC50 ([4]; relative to Compound 46A) | fold increase in binding activity (SPA IC50) ([1]; relative to Compound 10A) | fold increase in potency as measured by PBMC IC50 ([2]; relative to Compound 10A) | fold increase in potency as measured by mWB IC50 ([3]; relative to Compound 10A) | fold increase in potency as measured by hWB IC50 ([4]; relative to Compound 10A) | IC50 ([2]; PBMC IC50, human PBMC, LPS priming, ATP stimulation) | IC50 ([4]; hWB IC50, human whole blood, LPS/ATP, IL-1β) |
| --- | --- | --- | --- | --- | --- | --- | --- | --- | --- | --- | --- | --- | --- | --- | --- | --- | --- | --- |
| C[C@H]1CCN(c2nnn[nH]2)C[C@@H]1NC(=O)C1(c2ccc(Cl)cc2)CC1 [Compound 49C, 1-(4-chlorophenyl)-N-[(3R,4S)-4-methyl-1-(1H-tetrazol-5-yl)-3-piperidyl]cyclopropanecarboxamide] | 1000 to 10000 nM | – | – | 100 to 500 nM | – | – | – | 2000 to 3000 nM | – | 2000 to 3000 nM | – | – | – | – | – | – | – | – |
| C[C@@H]1C[C@@H](NC(=O)C2(c3ccc(OC(F)F)cc3)CC2)[C@H]2CC[C@@H]1N2c1nnn[nH]1 (single isomer, unassigned) [35A*] | < 1000 nM | – | – | – | – | – | – | < 1000 nM | – | – | – | – | – | – | – | – | < 10 nM | < 1000 nM |
| C[C@H]1C[C@@H](NC(=O)C2(c3ccc(Cl)cc3)CC2)CN(c2nnn[nH]2)C1 [Compound 46A, 1-(4-chlorophenyl)-N-((3R,5S)-5-methyl-1-(1H-tetrazol-5-yl)piperidin-3-yl)cyclopropane-1-carboxamide] | < 1000 nM | 860 nM | – | 10 to 100 nM | 100 nM | – | 170 nM | < 1000 nM | – | 2000 to 3000 nM | 2500 nM | – | 11 fold | 21 fold | 11 fold | 3 fold | – | – |

More lines, main results first:

| IC50 ([1]; displacement of 3H-MCC950) | IC50 [1] | fold increase in binding activity (SPA IC50) ([1]; relative to Compound 46A) | IC50 [2, 5] | IC50 ([2]; read-out: PBMC IC50) | fold increase in potency as measured by PBMC IC50 ([2]; relative to Compound 46A) | IC50 [3] | IC50 [3, 6] | fold increase in potency as measured by mWB IC50 ([3]; relative to Compound 46A) | IC50 [4, 7] | IC50 ([4]; read-out: hWB IC50) | fold increase in potency as measured by hWB IC50 ([4]; relative to Compound 46A) | fold increase in binding activity (SPA IC50) ([1]; relative to Compound 10A) | fold increase in potency as measured by PBMC IC50 ([2]; relative to Compound 10A) | fold increase in potency as measured by mWB IC50 ([3]; relative to Compound 10A) | fold increase in potency as measured by hWB IC50 ([4]; relative to Compound 10A) | Structure (SMILES) | IC50 ([2]; PBMC IC50, human PBMC, LPS priming, ATP stimulation) | IC50 ([4]; hWB IC50, human whole blood, LPS/ATP, IL-1β) |
| --- | --- | --- | --- | --- | --- | --- | --- | --- | --- | --- | --- | --- | --- | --- | --- | --- | --- | --- |
| < 1000 nM | 48 nM | 18 fold | < 10 nM | 6.7 nM | 15 fold | 35 nM | < 1000 nM | 4.9 fold | < 1000 nM | 220 nM | > 11 fold | – | – | – | – | C[C@H]1C[C@@H](NC(=O)C2(c3ccc(Cl)cc3O)CC2)CN(c2nnn[nH]2)C1 [Compound 47A, 1-(4-chloro-2-hydroxyphenyl)-N-((3R,5S)-5-methyl-1-(1H-tetrazol-5-yl)piperidin-3-yl)cyclopropane-1-carboxamide] | – | – |
| < 1000 nM | 41 nM | – | < 10 nM | 4.3 nM | – | 82 nM | < 1000 nM | – | < 1000 nM | 61 nM | – | – | – | – | – | C[C@H]1C[C@@H](NC(=O)C2(c3ccc(C(F)(F)F)cc3O)CC2)CN(c2nnn[nH]2)C1 [Compound 16A, 1-(2-hydroxy-4-(trifluoromethyl)phenyl)-N-((3R,5S)-5-methyl-1-(1H-tetrazol-5-yl)piperidin-3-yl)cyclopropane-1-carboxamide] | – | – |
